Reference: PubChem BioAssay (NCI)
Values joined by “and” are separate entries in the source; they are usually repeats but may differ in a detail not shown here. Equal values may be shown once.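 Interpolation was linear, between the two tested concentrations surrounding the appropriate level; five concentrations were tested over 48 hours in 96-well plates. GI50 marks 50% less growth. At the TGI there is no net growth.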

Key:
Assay in all cases: DTP human tumour cell line panel, 48 h
CAKI-1 renal = system: CAKI-1 renal
EKVX NSCLC = system: EKVX NSCLC
K-562 leukemia = system: K-562 leukemia
LOX IMVI melanoma = system: LOX IMVI melanoma
NCI-H23 lung = system: NCI-H23 lung
OVCAR-4 ovarian = system: OVCAR-4 ovarian
RPMI-8226 leukemia = system: RPMI-8226 leukemia
SNB-75 CNS = system: SNB-75 CNS
SR leukemia = system: SR leukemia
U251 CNS = system: U251 CNS

Structure (SMILES) | TGI (CAKI-1 renal) | TGI (EKVX NSCLC) | TGI (K-562 leukemia) | TGI (LOX IMVI melanoma) | TGI (NCI-H23 lung) | TGI (OVCAR-4 ovarian) | TGI (RPMI-8226 leukemia) | TGI (SNB-75 CNS) | TGI (SR leukemia) | TGI (U251 CNS) | GI50 (CAKI-1 renal) | GI50 (EKVX NSCLC) | GI50 (K-562 leukemia) | GI50 (LOX IMVI melanoma) | GI50 (NCI-H23 lung) | GI50 (OVCAR-4 ovarian) | GI50 (RPMI-8226 leukemia) | GI50 (SNB-75 CNS) | GI50 (SR leukemia) | GI50 (U251 CNS)
O=c1[nH]cnc2c(C3OC(CO)C(O)C3O)[nH]nc12 (stereo not drawn) | > 100 µM | > 100 µM | > 100 µM | > 100 µM | > 100 µM | 48.6 µM | > 100 µM | > 100 µM | > 100 µM | > 100 µM |  |  |  |  |  |  |  |  |  | 
CS(=O)(=O)CCNCc1ccc(-c2ccc3ncnc(Nc4ccc(OCc5ccccc5)c(C(F)(F)F)c4)c3c2)o1 | > 25 µM | > 25 µM | 18.2 µM | 8.33 µM | > 19.4 µM | > 25 µM | 18.2 µM | 24.7 µM | 19.9 µM | 8.92 µM | 7.09 µM | 7.87 µM | 6.83 µM | 4.27 µM | 6.37 µM | 10.3 µM | 7.37 µM | 6.21 µM | 7.47 µM | 4.49 µM
CCCCCCN(CCCCCC)C(=N)c1ccnc2ccccc12 | 15 µM | 22.9 µM | 8.35 µM | 6.33 µM | 23.4 µM | 19.6 µM | 11.6 µM | 17.3 µM | 5.34 µM | 10.9 µM | 3.18 µM | 8.58 µM | 2.37 µM | 2.17 µM | 6.9 µM | 5.98 µM | 2.93 µM | 4.68 µM | 1.74 µM | 3.31 µM
CC[C@H](C)c1occ2c(O)c(C(=O)O)c(=O)cc-2c1C | > 100 µM | > 100 µM | > 100 µM | 32.8 µM | 43.1 µM | 68.2 µM | 90.8 µM | > 100 µM | 53.5 µM | 74.6 µM |  |  |  |  |  |  |  |  |  | 
C=C(C)C(=O)NC(N)=NC#N | 44.7 µM and 82.9 µM | > 90 µM and 392 µM | 51.5 µM and 58.5 µM | 96 µM | 301 µM | 35.7 µM and 295 µM | 44.9 µM and 120 µM | 289 µM | 87.9 µM and 132 µM | 260 µM |  | 165 µM |  | 28.6 µM | 147 µM | 140 µM | 24.7 µM | 154 µM |  | 131 µM
O=C1c2ccccc2C(=O)N1/N=C\c1ccc(Br)cc1 | > 10 µM | > 100 µM | > 100 µM | > 10 µM | > 100 µM | > 100 µM | > 10 µM | > 100 µM | > 100 µM | > 100 µM |  | > 100 µM | > 100 µM |  | > 100 µM | > 100 µM |  | > 100 µM | > 100 µM | 
CCOC(=O)[C@H](CSSc1ncnc2cc[nH]c12)NC(=O)[C@@H](C)c1ccc2cc(OC)ccc2c1 | > 100 µM | > 100 µM | > 100 µM | 18.1 µM | > 100 µM | > 100 µM | > 100 µM | > 100 µM | > 100 µM | > 100 µM | 0.378 µM | > 100 µM | 0.156 µM | 0.081 µM | 2.18 µM | 2.03 µM | 0.282 µM | 0.388 µM | 0.385 µM | 4.77 µM
O=S(=O)(/C=C/C=C/S(=O)(=O)c1ccccc1)c1ccccc1 | 2.54 µM and 2.25 µM | 3.53 µM | 1.26 µM and 0.516 µM | 2.42 µM and 3.33 µM | 3.14 µM and 2.62 µM | 3.28 µM and 3.18 µM | 1.66 µM | 26.8 µM | 2.29 µM and 0.934 µM | 11 µM | 1.04 µM |  | 0.179 µM | 1.42 µM | 1.06 µM |  |  | 13.9 µM |  | 2.7 µM
CN(C)CC/C=C1\c2ccccc2Sc2ccc(Cl)cc21 | 11.4 µM and 21.4 µM | 22.3 µM and 22.8 µM | 4.71 µM and 18.7 µM |  | 15.7 µM and 31.3 µM | 13.9 µM and 28.5 µM | 9.19 µM and 17.2 µM | 7.61 µM and 25.2 µM | 8.76 µM | 4.66 µM and 26.9 µM | 2.56 µM | 6.47 µM | 2.43 µM | 1.57 µM | 3.52 µM | 3.72 µM | 2.69 µM | 2.46 µM | 3.29 µM | 1.92 µM
